# Data taken from patent US20230085307A1, “PYRIDAZINONE COMPOUND AND HERBICIDE” (NISSAN CHEMICAL CORPORATION, priority 2019, published 2023).
# Tested on: barnyard grass
# Test: Test Example 3: herbicidal effect by foliage application, Wagner pot (Table 18, symbol H)
# Assay type: in vivo, barnyard grass (Echinochloa crus-galli)
# Settings: 320 g/ha
# Method in brief: (§1)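 Plants were sown in alluvial soil held under 0.1–0.5 cm standing water and grown 14 days in a greenhouse at 25–30 °C. An emulsifiable formulation, water-diluted to the set dose, was then sprayed onto the foliage, and effects were scored three weeks later using previously defined criteria.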
row,SMILES,herbicidal effect on barnyard grass (H)
1,CCCOc1ccc(-c2sc3c(F)cccc3c2-c2c(OC(=O)CCC)c(C)nn(C)c2=O)cc1 [4-010],5 (Herbicidal rate of 90% or more (almost completely withered))
2,CCCC(=O)Oc1c(C)nn(C)c(=O)c1-c1c(-c2ccc(OC)cc2)sc2c(Cl)cccc12 [4-024],4 (Herbicidal rate of 70% or more and less than 90%)

# Tested on: green foxtail
# Test: Test Example 4: herbicidal effect by soil treatment (Table 19, symbol G)
# Assay type: in vivo, green foxtail (Setaria viridis)
# Settings: amount of applied herbicide 320 g/ha
# Method in brief: (§2)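 In this soil treatment, the formulated compound reached the seeds only through the soil: seeds were buried about 1.5 cm deep in sterilized diluvial soil, then the diluted emulsion was sprayed over the surface. After three weeks at 25° C. to 30° C. in a greenhouse, effects were graded on criteria from an earlier test.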
row,SMILES,"Herbicidal effect by soil treatment, G: green foxtail"
1,CCCOc1ccc(-c2sc3c(F)cccc3c2-c2c(OC(=O)CCC)c(C)nn(C)c2=O)cc1 [4-010],0 (Herbicidal rate of 5% or less (almost no effect))
2,CCCC(=O)Oc1c(C)nn(C)c(=O)c1-c1c(-c2ccc(OC)cc2)sc2c(Cl)cccc12 [4-024],2 (Herbicidal rate of 20% or more and less than 40%)

# Tested on: late watergrass
# Test: Test Example 1: herbicidal activity, application before weed generation under submerged conditions (Table 16, symbol A)
# Assay type: in vivo, late watergrass (Echinochloa oryzicola)
# Settings: amount of applied herbicide 320 g/ha
# Method in brief: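 Submerged Wagner pots (alluvial soil, 4 cm water) sown with weed seeds and planted with 2.5-leaf rice seedlings; emulsifiable concentrate diluted in water applied to water surface on sowing day. Held in greenhouse at 25-30 °C; injury scored 0-5 by herbicidal rate after three weeks.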
row,SMILES,"Herbicidal effect, A: late watergrass"
1,CCCOc1ccc(-c2sc3c(F)cccc3c2-c2c(OC(=O)CCC)c(C)nn(C)c2=O)cc1 [4-010],3 (Herbicidal rate of 40% or more and less than 70%)
2,CCCC(=O)Oc1c(C)nn(C)c(=O)c1-c1c(-c2ccc(OC)cc2)sc2c(Cl)cccc12 [4-024],3 (Herbicidal rate of 40% or more and less than 70%)

# Tested on: southern crabgrass
# Test: Test Example 4: herbicidal effect by soil treatment (Table 19, symbol F)
# Assay type: in vivo, southern crabgrass (Digitaria ciliaris)
# Settings: amount of applied herbicide 320 g/ha
# Method in brief: as §2
row,SMILES,"Herbicidal effect by soil treatment, F: southern crabgrass"
1,CCCOc1ccc(-c2sc3c(F)cccc3c2-c2c(OC(=O)CCC)c(C)nn(C)c2=O)cc1 [4-010],0 (Herbicidal rate of 5% or less (almost no effect))
2,CCCC(=O)Oc1c(C)nn(C)c(=O)c1-c1c(-c2ccc(OC)cc2)sc2c(Cl)cccc12 [4-024],0 (Herbicidal rate of 5% or less (almost no effect))

# Tested on: barnyard grass
# Test: Test Example 4: herbicidal effect by soil treatment (Table 19, symbol H)
# Assay type: in vivo, barnyard grass (Echinochloa crus-galli)
# Settings: amount of applied herbicide 320 g/ha
# Method in brief: as §2
row,SMILES,"Herbicidal effect by soil treatment, H: barnyard grass"
1,CCCOc1ccc(-c2sc3c(F)cccc3c2-c2c(OC(=O)CCC)c(C)nn(C)c2=O)cc1 [4-010],0 (Herbicidal rate of 5% or less (almost no effect))
2,CCCC(=O)Oc1c(C)nn(C)c(=O)c1-c1c(-c2ccc(OC)cc2)sc2c(Cl)cccc12 [4-024],0 (Herbicidal rate of 5% or less (almost no effect))

# Tested on: oval-leafed pondweed
# Test: Test Example 2: herbicidal activity, application during weed generation under submerged conditions (Table 17, symbol C)
# Assay type: in vivo, oval-leafed pondweed (Monochoria vaginalis)
# Settings: AAH 320 g/ha; application during weed generation, submerged conditions
# Method in brief: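 Mixed weed seedlings in alluvial soil under a 4 cm water layer, greenhouse-grown at 25–30° C. Compound given as a diluted emulsion into the floodwater at the 1–2 leaf stage; response graded after three weeks.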
row,SMILES,"herbicidal effect rating, C: oval-leafed pondweed"
1,CCCOc1ccc(-c2sc3c(F)cccc3c2-c2c(OC(=O)CCC)c(C)nn(C)c2=O)cc1 [4-010],3 (Herbicidal rate of 40% or more and less than 70%)
2,CCCC(=O)Oc1c(C)nn(C)c(=O)c1-c1c(-c2ccc(OC)cc2)sc2c(Cl)cccc12 [4-024],0 (Herbicidal rate of 5% or less (almost no effect))

# Tested on: green foxtail
# Test: Test Example 5: herbicidal effect by foliage application, plastic box (Table 20, symbol G)
# Assay type: in vivo, green foxtail (Setaria viridis)
# Settings: 320 g/ha, foliage application after 14-day growth, evaluated three weeks after application
# Method in brief: (§3)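 Plants were sown into sterilized diluvial soil under about 1.5 cm cover and kept in a greenhouse at 25° C. to 30° C. Fourteen days on, foliage received an even spray of the diluted emulsion. Herbicidal or crop effect was judged three weeks afterwards.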
row,SMILES,herbicidal effect on G: green foxtail (evaluation grade 0-5)
1,CCCOc1ccc(-c2sc3c(F)cccc3c2-c2c(OC(=O)CCC)c(C)nn(C)c2=O)cc1 [4-010],3 (Herbicidal rate of 40% or more and less than 70%)
2,CCCC(=O)Oc1c(C)nn(C)c(=O)c1-c1c(-c2ccc(OC)cc2)sc2c(Cl)cccc12 [4-024],4 (Herbicidal rate of 70% or more and less than 90%)

# Tested on: redroot pigweed
# Test: Test Example 5: herbicidal effect by foliage application, plastic box (Table 20, symbol N)
# Assay type: in vivo, redroot pigweed (Amaranthus retroflexus)
# Settings: 320 g/ha, foliage application after 14-day growth, evaluated three weeks after application
# Method in brief: as §3
row,SMILES,herbicidal effect on N: redroot pigweed (evaluation grade 0-5)
1,CCCOc1ccc(-c2sc3c(F)cccc3c2-c2c(OC(=O)CCC)c(C)nn(C)c2=O)cc1 [4-010],5 (Herbicidal rate of 90% or more (almost completely withered))
2,CCCC(=O)Oc1c(C)nn(C)c(=O)c1-c1c(-c2ccc(OC)cc2)sc2c(Cl)cccc12 [4-024],5 (Herbicidal rate of 90% or more (almost completely withered))

# Tested on: Chinese sprangletop
# Test: Test Example 3: herbicidal effect by foliage application, Wagner pot (Table 18, symbol D)
# Assay type: in vivo, chinese sprangletop (Leptochloa chinensis)
# Settings: 320 g/ha
# Method in brief: as §1
row,SMILES,herbicidal effect on Chinese sprangletop (D)
1,CCCOc1ccc(-c2sc3c(F)cccc3c2-c2c(OC(=O)CCC)c(C)nn(C)c2=O)cc1 [4-010],4 (Herbicidal rate of 70% or more and less than 90%)
2,CCCC(=O)Oc1c(C)nn(C)c(=O)c1-c1c(-c2ccc(OC)cc2)sc2c(Cl)cccc12 [4-024],3 (Herbicidal rate of 40% or more and less than 70%)

# Tested on: redroot pigweed
# Test: Test Example 4: herbicidal effect by soil treatment (Table 19, symbol N)
# Assay type: in vivo, redroot pigweed (Amaranthus retroflexus)
# Settings: amount of applied herbicide 320 g/ha
# Method in brief: as §2
row,SMILES,"Herbicidal effect by soil treatment, N: redroot pigweed"
1,CCCOc1ccc(-c2sc3c(F)cccc3c2-c2c(OC(=O)CCC)c(C)nn(C)c2=O)cc1 [4-010],4 (Herbicidal rate of 70% or more and less than 90%)
2,CCCC(=O)Oc1c(C)nn(C)c(=O)c1-c1c(-c2ccc(OC)cc2)sc2c(Cl)cccc12 [4-024],3 (Herbicidal rate of 40% or more and less than 70%)

# Tested on: chickweed
# Test: Test Example 4: herbicidal effect by soil treatment (Table 19, symbol P)
# Assay type: in vivo, common chickweed (Stellaria media)
# Settings: amount of applied herbicide 320 g/ha
# Method in brief: as §2
row,SMILES,"Herbicidal effect by soil treatment, P: chickweed"
1,CCCOc1ccc(-c2sc3c(F)cccc3c2-c2c(OC(=O)CCC)c(C)nn(C)c2=O)cc1 [4-010],3 (Herbicidal rate of 40% or more and less than 70%)
2,CCCC(=O)Oc1c(C)nn(C)c(=O)c1-c1c(-c2ccc(OC)cc2)sc2c(Cl)cccc12 [4-024],0 (Herbicidal rate of 5% or less (almost no effect))

# Tested on: blackgrass
# Test: Test Example 4: herbicidal effect by soil treatment (Table 19, symbol J)
# Assay type: in vivo, blackgrass (Alopecurus myosuroides)
# Settings: amount of applied herbicide 320 g/ha
# Method in brief: as §2
row,SMILES,"Herbicidal effect by soil treatment, J: blackgrass"
1,CCCOc1ccc(-c2sc3c(F)cccc3c2-c2c(OC(=O)CCC)c(C)nn(C)c2=O)cc1 [4-010],0 (Herbicidal rate of 5% or less (almost no effect))
2,CCCC(=O)Oc1c(C)nn(C)c(=O)c1-c1c(-c2ccc(OC)cc2)sc2c(Cl)cccc12 [4-024],0 (Herbicidal rate of 5% or less (almost no effect))

# Tested on: southern crabgrass
# Test: Test Example 5: herbicidal effect by foliage application, plastic box (Table 20, symbol F)
# Assay type: in vivo, southern crabgrass (Digitaria ciliaris)
# Settings: 320 g/ha, foliage application after 14-day growth, evaluated three weeks after application
# Method in brief: as §3
row,SMILES,herbicidal effect on F: southern crabgrass (evaluation grade 0-5)
1,CCCOc1ccc(-c2sc3c(F)cccc3c2-c2c(OC(=O)CCC)c(C)nn(C)c2=O)cc1 [4-010],0 (Herbicidal rate of 5% or less (almost no effect))
2,CCCC(=O)Oc1c(C)nn(C)c(=O)c1-c1c(-c2ccc(OC)cc2)sc2c(Cl)cccc12 [4-024],1 (Herbicidal rate of 5% or more and less than 20%)

# Tested on: windgrass
# Test: Test Example 4: herbicidal effect by soil treatment (Table 19, symbol L)
# Assay type: in vivo, windgrass (Apera spica-venti)
# Settings: amount of applied herbicide 320 g/ha
# Method in brief: as §2
row,SMILES,"Herbicidal effect by soil treatment, L: windgrass"
1,CCCOc1ccc(-c2sc3c(F)cccc3c2-c2c(OC(=O)CCC)c(C)nn(C)c2=O)cc1 [4-010],0 (Herbicidal rate of 5% or less (almost no effect))
2,CCCC(=O)Oc1c(C)nn(C)c(=O)c1-c1c(-c2ccc(OC)cc2)sc2c(Cl)cccc12 [4-024],0 (Herbicidal rate of 5% or less (almost no effect))

# Tested on: persian speedwell
# Test: Test Example 5: herbicidal effect by foliage application, plastic box (Table 20, symbol R)
# Assay type: in vivo, Persian speedwell (Veronica persica)
# Settings: 320 g/ha, foliage application after 14-day growth, evaluated three weeks after application
# Method in brief: as §3
row,SMILES,herbicidal effect on R: persian speedwell (evaluation grade 0-5)
1,CCCOc1ccc(-c2sc3c(F)cccc3c2-c2c(OC(=O)CCC)c(C)nn(C)c2=O)cc1 [4-010],5 (Herbicidal rate of 90% or more (almost completely withered))
2,CCCC(=O)Oc1c(C)nn(C)c(=O)c1-c1c(-c2ccc(OC)cc2)sc2c(Cl)cccc12 [4-024],4 (Herbicidal rate of 70% or more and less than 90%)

# Tested on: blackgrass
# Test: Test Example 5: herbicidal effect by foliage application, plastic box (Table 20, symbol J)
# Assay type: in vivo, blackgrass (Alopecurus myosuroides)
# Settings: 320 g/ha, foliage application after 14-day growth, evaluated three weeks after application
# Method in brief: as §3
row,SMILES,herbicidal effect on J: blackgrass (evaluation grade 0-5)
1,CCCOc1ccc(-c2sc3c(F)cccc3c2-c2c(OC(=O)CCC)c(C)nn(C)c2=O)cc1 [4-010],4 (Herbicidal rate of 70% or more and less than 90%)
2,CCCC(=O)Oc1c(C)nn(C)c(=O)c1-c1c(-c2ccc(OC)cc2)sc2c(Cl)cccc12 [4-024],0 (Herbicidal rate of 5% or less (almost no effect))
